Measured values reported in US8541585B2, “N-acyl cyclic amine derivative or pharmaceutically acceptable salt thereof” (Dainippon Sumitomo Pharma Co., Ltd., priority 2010, dated 2013).

Legend:
human α1D receptor = target: T1, human α1D receptor (Homo sapiens, UniProt P25100); assay: Adrenaline α1D receptor binding assay ([3H]-prazosin); settings: 100 nM test drug; [3H]-prazosin 0.6 nM; human α1D receptor-expressing CHO cell membrane; read-out: BINDING INHIBITION RATE (%) α1D 100 nM
T1 construct: expressed in transfected cells; host or cells: CHO cells (membrane preparation)
T1 sequence (P25100 1-572): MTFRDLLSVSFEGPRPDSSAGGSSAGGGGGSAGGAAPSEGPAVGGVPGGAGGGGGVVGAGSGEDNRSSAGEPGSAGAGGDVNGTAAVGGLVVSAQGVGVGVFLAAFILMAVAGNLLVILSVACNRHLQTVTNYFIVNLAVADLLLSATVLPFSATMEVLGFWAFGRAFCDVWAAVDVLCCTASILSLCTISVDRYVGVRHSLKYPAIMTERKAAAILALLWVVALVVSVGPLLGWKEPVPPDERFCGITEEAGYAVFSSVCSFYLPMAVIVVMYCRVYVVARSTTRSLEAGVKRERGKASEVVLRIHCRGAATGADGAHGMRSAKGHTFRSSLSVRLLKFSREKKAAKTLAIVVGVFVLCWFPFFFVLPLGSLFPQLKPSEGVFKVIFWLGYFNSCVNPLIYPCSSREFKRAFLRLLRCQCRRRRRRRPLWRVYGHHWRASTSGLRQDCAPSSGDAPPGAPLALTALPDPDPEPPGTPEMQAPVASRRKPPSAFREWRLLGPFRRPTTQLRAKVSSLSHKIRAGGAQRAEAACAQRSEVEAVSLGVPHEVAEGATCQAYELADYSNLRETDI
Protocol: (4) Adrenaline α1D Receptor Binding Assay
After a reaction in a total volume of 200 μL of 50 mM Tris-HCl (pH=7.6) buffer solution containing 50 μL of [^3H]-prazosin (final concentration 0.6 nM), 1 μL of test drug in DMSO, and 149 μL of human α1D receptor-expressing CHO cell membrane sample, human α1D receptor binding activity of [^3H]-prazosin was measured. The reaction solution let stand for 30 minutes at room temperature, and then it was quickly added on a glass fiber filter plate (Multiscreen FB, Millipore inc.) coated with 0.3% polyethyleneimine (PEI) and filtered under reduced pressure. The glass fiber filter was washed with 200 μL of ice-cooled 50 mM Tris-HCl (pH=7.6) twice, repeatedly filtered under reduced pressure, and then transferred to a vial containing 4 mL of Ecoscint A (National Diagnostics inc.). The residual radioactivity on the glass fiber filter was measured by a liquid scintillation counter. Nonspecific binding was measured in the presence of 1 μM of prazosin, and [^3H]-prazosin binding inhibition rate in the presence of 100 nM of test drug was determined.

human 5-HT2A receptor = target: T2, human 5-HT2A receptor (Homo sapiens, UniProt P28223); assay: Serotonin 5-HT2A receptor binding assay ([3H]-ketanserin); settings: [3H]-ketanserin 1 nM, human 5-HT2A receptor-expressing CHO cell membrane; for inhibition at 0.001 µM: 1 nM test drug, read-out: BINDING INHIBITION RATE (%) 5HT2A 1 nM; for inhibition at 0.01 µM: 10 nM test drug, read-out: BINDING INHIBITION RATE (%) 5HT2A 10 nM
T2 construct: expressed in transfected cells; host or cells: CHO cells (membrane preparation)
Protocol: (2) Serotonin 5-HT2A Receptor Binding Assay
5-HT2A receptor binding assay was performed in reference to a method described by Hirose et al. (Japan. J. Pharmacol., 53, 321-329, 1990). After a reaction in a total volume of 200 μL of 50 mM Tris-HCl (pH=7.6) buffer solution containing 50 μL of [^3H]-ketanserin (final concentration 1 nM), 1 μL of test drug in DMSO, and 149 μL of human 5-HT2A receptor-expressing CHO cell membrane sample, human 5-HT2A receptor binding activity of [^3H]-ketanserin was measured. The reaction solution let stand for 15 minutes at 37° C., and then it was quickly added on a glass fiber filter plate (Multiscreen FB, Millipore inc.) coated with 0.05% Brij 35 and filtered under reduced pressure. The glass fiber filter was washed with 200 μL of ice-cooled 50 mM Tris-HCl (pH=7.6) twice, repeatedly filtered under reduced pressure, and then transferred to a vial containing 4 mL of Ecoscint A (National Diagnostics inc.). The residual radioactivity on the glass fiber filter was measured by a liquid scintillation counter. Nonspecific binding was measured in the presence of 10 μM of MDL-100907, and [^3H]-ketanserin binding inhibition rate in the presence of 1 nM or 10 nM of test drug was determined.

human 5-HT6 receptor = target: T3, human 5-HT6 receptor (Homo sapiens, UniProt P50406); assay: Serotonin 5-HT6 receptor binding assay ([3H]-clozapine); settings: 100 nM test drug; [3H]-clozapine 2 nM; human 5-HT6 receptor-expressing CHO cell membrane; read-out: BINDING INHIBITION RATE (%) 5HT6 100 nM
T3 construct: expressed in transfected cells; host or cells: CHO cells (membrane preparation)
Protocol: (3) Serotonin 5-HT6 Receptor Binding Assay
After a reaction in a total volume of 200 μL of 50 mM Tris-HCl (pH=7.6), 4 mM CaCl2, and 0.5 mM EDTA buffer solution containing 50 μL of [^3H]-clozapine (final concentration 2 nM), 1 μL of test drug in DMSO, and 149 μL of human 5-HT6 receptor-expressing CHO cell membrane sample, human 5-HT6 receptor binding activity of [^3H]-clozapine was measured. The reaction solution let stand for 40 minutes at room temperature, and then it was quickly added on a glass fiber filter plate (Multiscreen FB, Millipore inc.) coated with 0.3% polyethyleneimine (PEI) and filtered under reduced pressure. The glass fiber filter was washed with 200 μL of ice-cooled 50 mM Tris-HCl (pH=7.6) twice, repeatedly filtered under reduced pressure, and then transferred to a vial containing 4 mL of Ecoscint A (National Diagnostics inc.). The residual radioactivity on the glass fiber filter was measured by a liquid scintillation counter. Nonspecific binding was measured in the presence of 10 μM of SB-258585, and [^3H]-clozapine binding inhibition rate in the presence of 100 nM of test drug was determined.

human D2L receptor = human D2L receptor (Homo sapiens, UniProt P14416); assay: Dopamine D2L receptor binding assay ([3H]-spiperone); settings: 10 nM test drug; [3H]-spiperone 0.5 nM; human D2L receptor-expressing CHO cell membrane; read-out: BINDING INHIBITION RATE (%) D2L 10 nM
Protocol: (1) Dopamine D2L Receptor Binding Assay
D2L receptor binding assay was performed in reference to a method described by Hirose et al. (Japan. J. Pharmacol., 53, 321-329, 1990). After a reaction in a total volume of 200 μL of 50 mM Tris-HCl (pH=7.6) buffer solution containing 50 μL of [^3H]-spiperone (final concentration 0.5 nM), 1 μL of test drug in DMSO, and 149 μL of human D2L receptor-expressing CHO cell membrane sample, human D2L receptor binding activity of [^3H]-spiperone was measured. The reaction solution let stand for 60 minutes at room temperature, and then it was quickly added on a glass fiber filter plate (Multiscreen FB, Millipore inc.) coated with 0.3% polyethyleneimine (PEI) and filtered under reduced pressure. The glass fiber filter was washed with 200 μL of ice-cooled 50 mM Tris-HCl (pH=7.6) twice, repeatedly filtered under reduced pressure, and then transferred to a vial containing 4 mL of Ecoscint A (National Diagnostics inc.). The residual radioactivity on the glass fiber filter was measured by a liquid scintillation counter. Nonspecific binding was measured in the presence of 10 μM of spiperone, and [^3H]-spiperone binding inhibition rate in the presence of 10 nM of test drug was determined. The larger binding inhibition rate (%) means that test drug has the higher binding affinity for human D2L receptor.

human D2L receptor, sequence (P14416 whole entry): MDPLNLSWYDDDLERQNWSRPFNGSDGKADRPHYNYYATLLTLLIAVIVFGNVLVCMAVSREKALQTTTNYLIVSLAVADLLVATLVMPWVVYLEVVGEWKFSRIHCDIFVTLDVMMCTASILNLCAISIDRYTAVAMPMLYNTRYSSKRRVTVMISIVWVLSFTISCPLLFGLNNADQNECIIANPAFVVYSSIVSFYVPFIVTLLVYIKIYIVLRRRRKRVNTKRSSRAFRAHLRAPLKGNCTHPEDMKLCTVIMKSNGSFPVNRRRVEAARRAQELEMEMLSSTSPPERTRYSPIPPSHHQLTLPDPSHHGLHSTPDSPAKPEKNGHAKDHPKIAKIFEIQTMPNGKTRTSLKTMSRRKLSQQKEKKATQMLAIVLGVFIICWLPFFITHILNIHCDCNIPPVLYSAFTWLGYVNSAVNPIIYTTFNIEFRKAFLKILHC
T2 sequence (P28223 whole entry): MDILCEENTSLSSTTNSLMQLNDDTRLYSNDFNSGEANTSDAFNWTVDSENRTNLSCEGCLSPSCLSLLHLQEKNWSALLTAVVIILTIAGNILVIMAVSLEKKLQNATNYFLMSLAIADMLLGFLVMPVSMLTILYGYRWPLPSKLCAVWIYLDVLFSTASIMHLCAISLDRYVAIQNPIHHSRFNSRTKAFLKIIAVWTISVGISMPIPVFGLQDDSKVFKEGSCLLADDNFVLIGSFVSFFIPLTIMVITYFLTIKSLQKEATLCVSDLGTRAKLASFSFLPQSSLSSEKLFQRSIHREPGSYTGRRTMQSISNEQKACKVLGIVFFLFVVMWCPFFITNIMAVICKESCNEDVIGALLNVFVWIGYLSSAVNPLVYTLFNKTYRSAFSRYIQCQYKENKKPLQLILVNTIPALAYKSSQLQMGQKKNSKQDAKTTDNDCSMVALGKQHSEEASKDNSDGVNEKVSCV
T3 sequence (P50406 whole entry): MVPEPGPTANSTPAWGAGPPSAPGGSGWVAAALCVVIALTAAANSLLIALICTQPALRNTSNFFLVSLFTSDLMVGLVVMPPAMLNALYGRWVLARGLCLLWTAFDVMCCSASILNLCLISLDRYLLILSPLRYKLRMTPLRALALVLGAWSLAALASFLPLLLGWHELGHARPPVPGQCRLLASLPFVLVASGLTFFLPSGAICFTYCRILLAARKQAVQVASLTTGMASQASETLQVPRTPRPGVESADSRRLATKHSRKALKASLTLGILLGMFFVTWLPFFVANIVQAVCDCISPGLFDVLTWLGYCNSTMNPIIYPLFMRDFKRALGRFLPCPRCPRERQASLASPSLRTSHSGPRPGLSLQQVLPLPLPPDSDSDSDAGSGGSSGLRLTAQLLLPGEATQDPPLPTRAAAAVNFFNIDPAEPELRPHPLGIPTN

SMILES | inhibition at 0.1 µM (human α1D receptor) [%] | inhibition at 0.001 µM (human 5-HT2A receptor) [%] | inhibition at 0.01 µM (human 5-HT2A receptor) [%] | inhibition at 0.1 µM (human 5-HT6 receptor) [%] | inhibition at 0.01 µM (human D2L receptor) [%]
COc1ccc2[nH]c(C(=O)N3CCCC[C@H]3CCN3CCC(c4coc5ccccc45)CC3)cc2c1 [Example 26] | 67 | 77 | 98 | 65 | 77
Cc1ccc2[nH]c(C(=O)N3CCOC[C@H]3CCN3CCC(c4coc5ccccc45)CC3)cc2c1 [Example 27] | 97 | – | 93 | 85 | 87
O=C(/C=C/c1ccc2c(c1)OCO2)N1CCC[C@H](CN2CCC(c3coc4ccccc34)CC2)C1 [Example 29] | 92 | – | 100 | 85 | 80
COc1ccc2cc(C(=O)N3CCCC[C@H]3CCN3CCC(c4c[nH]c5ccccc45)CC3)[nH]c2c1 [Example 31] | 54 | – | 96 | 88 | 78
COc1ccc2cc(C(=O)N3CC[C@H]3CCN3CCC(c4c[nH]c5ccccc45)CC3)[nH]c2c1 [Example 32] | 68 | – | 95 | 97 | 36
O=C(/C=C/c1ccc2c(c1)OCO2)N1CCC[C@H](CN2CCC(c3c[nH]c4ccccc34)CC2)C1 [Example 34] | 93 | – | 98 | 86 | 75
COc1ccc2cc(C(=O)N3C[C@H](O)C[C@H]3CCN3CCC(c4c[nH]c5ccccc45)CC3)[nH]c2c1 [Example 35] | 81 | – | 89 | 79 | 37
CCNC(=O)O[C@@H]1C[C@@H](CCN2CCC(c3c[nH]c4ccccc34)CC2)N(C(=O)c2cc3cc(OC)ccc3[nH]2)C1 [Example 36] | 75 | – | 87 | 86 | 48
COc1ccc2[nH]c(C(=O)N3C[C@@](C)(O)C[C@H]3CCN3CCC(c4c[nH]c5ccccc45)CC3)cc2c1 [Example 38] | 67 | – | 97 | 86 | 72
Cc1ccc2cc(C(=O)N3C[C@H](O)CC[C@H]3CCN3CCC(c4c[nH]c5ccccc45)CC3)[nH]c2c1 [Example 39] | 69 | 70 | – | 86 | 77
Cc1ccc2cc(C(=O)N3CCOCCC3CCN3CCC(c4c[nH]c5ccccc45)CC3)[nH]c2c1 (stereo not shown) [Example 43] | 82 | 77 | – | 83 | 74
O=C(c1ccc(F)cc1)C1CCN(C[C@H]2CCCN(C(=O)c3cc4ccc(Cl)cc4[nH]3)C2)CC1 [Example 45] | 46 | 84 | – | 97 | 82
Cc1cc2c3c(c1)cc(C(=O)N1CCC[C@H]1CCN1CCC(C(=O)c4ccc(F)cc4)CC1)n3CCC2=O [Example 46] | 54 | 48 | – | 82 | 58
COc1cc2cc(C(=O)N3CCC[C@H]3CCN3CCC(C(=O)c4ccc(F)cc4)CC3)[nH]c2cn1 [Example 50] | 43 | 66 | – | 88 | 71
O=C(c1ccc(F)cc1)C1CCN(CC[C@@H]2CCCN2C(=O)c2cc(-c3ccccc3)n[nH]2)CC1 [Example 51] | 51 | 76 | – | 95 | 81
O=C(c1ccc(F)cc1)C1CCN(CC[C@@H]2CCCN2C(=O)c2[nH]c3ccccc3c2C(=O)N2CCCCC2)CC1 [Example 54] | 63 | 7 | – | 81 | 71
N#Cc1ccc2[nH]c(C(=O)N3CCC[C@H]3CCN3CCC(C(=O)c4ccc(F)cc4)CC3)cc2c1 [Example 56] | 70 | 70 | – | 91 | 84
O=C(c1nc2cc(Cl)ccc2[nH]1)N1CCCC[C@H]1CCN1CCC(c2c[nH]c3ccccc23)CC1 [Example 58] | 97 | 74 | 91 | 98 | 57
Cc1ccc2nc(C(=O)N3CCC[C@H]3CCN3CCC(C(=O)c4ccc(F)cc4)CC3)[nH]c2c1 [Example 59] | 95 | 58 | – | 87 | 91
COc1ccc2[nH]c(C(=O)N3CCC[C@H]3CCN3CCC(c4cn(-c5ccc(F)cc5)c5ccc(Cl)cc45)CC3)cc2c1 [Example 60] | 76 | – | 78 | 97 | 76
